Test results: patent US9018174B2, “Mouse model and treatment of hereditary inclusion body myopathy” (HIBM Research Group, Inc., priority 2008, dated 2015)
Substitutions are numbered along the chain they refer to. Where “and” joins values, the source holds several entries; their conditions need not be identical. Identical values can stand only once. Entries after “also recorded” stand apart in the source; their conditions may differ.

Assays:
cultured cells = conditions: SiaLev or SiaNAz as downstream product; cited from earlier work
GNE/MNK protein = molecular target: T1, GNE/MNK protein (Mus musculus, UniProt Q91WG8, M712T); test: Immunoblot with anti-GNE/MNK antibodies of muscle and kidney extracts after ManNAc feeding; assay type: in vivo; conditions: ManNAc treated, referenced to β-actin, untreated -/- 78% decreased
T1 construct: Mouse kidney and skeletal muscle (hindlimb quadriceps) tissues were homogenized; from tissue; host or cells: skeletal muscle and kidney of GNE-M712T knock-in mice (C57BL/6J), age P2
T1 sequence (Q91WG8 1-722 M712T): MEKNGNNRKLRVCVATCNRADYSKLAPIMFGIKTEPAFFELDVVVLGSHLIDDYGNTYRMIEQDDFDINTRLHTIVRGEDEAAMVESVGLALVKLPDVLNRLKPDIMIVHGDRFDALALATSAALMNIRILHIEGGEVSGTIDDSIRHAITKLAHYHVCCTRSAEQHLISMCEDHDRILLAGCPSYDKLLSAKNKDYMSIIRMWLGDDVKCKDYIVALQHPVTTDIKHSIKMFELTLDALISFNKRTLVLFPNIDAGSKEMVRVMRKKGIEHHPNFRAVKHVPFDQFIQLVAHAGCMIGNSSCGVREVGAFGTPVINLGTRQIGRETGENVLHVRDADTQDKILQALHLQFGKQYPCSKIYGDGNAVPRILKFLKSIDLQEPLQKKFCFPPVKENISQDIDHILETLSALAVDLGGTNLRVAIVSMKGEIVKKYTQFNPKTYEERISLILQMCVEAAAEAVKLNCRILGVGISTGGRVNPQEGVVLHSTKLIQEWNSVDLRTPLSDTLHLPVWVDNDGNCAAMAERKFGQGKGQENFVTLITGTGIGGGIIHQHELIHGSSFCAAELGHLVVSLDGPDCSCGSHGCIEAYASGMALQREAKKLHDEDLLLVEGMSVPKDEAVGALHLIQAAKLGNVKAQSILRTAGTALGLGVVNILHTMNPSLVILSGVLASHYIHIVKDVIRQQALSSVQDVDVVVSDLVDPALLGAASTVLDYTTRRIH
From the text: (§1) Antibodies. A rabbit polyclonal antibody was custom prepared against a GNE/MNK peptide comprising amino acids 588-607: […] (SEQ ID NO:24), coupled to keyhole limpet hemocyanine (KLH) and affinity-purified against the corresponding antigenic peptide (Covance). Other primary antibodies were commercially obtained: dystrophin (ab15277, AbCam), α-dystroglycan (IIH6, Upstate Biotechnology), laminin (L9393, Sigma-Aldrich), podocalyxin (PODX15-A, Alpha Diagnostic International), PSA-NCAM (MAB5324, Chemicon), and β-actin (AAN01, Cytoskeleton).
(§2) Western blotting. Mouse tissues (age P2) were extracted, homogenized in CelLytic buffer, consisting of a mild detergent, bicine buffer and 150 mM NaC (CelLytic) supplemented with protease inhibitors (Complete Minia, Roche). The lysates were sonicated and cleared by centrifugation (1000 g for 10 min), and the resulting supernatants were assayed for protein concentration (BCA protein assay, Pierce). For the neuraminidase enzymatic treatments, protein homogenates (25 μg) were incubated with 1 mU/μg of Neuraminidase (N-6514, Sigma) for 30 min at 37° C. Equal amounts of protein (25-50 μg) were electrophoresed on 4-12% Tris-Glycine gels (Novex, Invitrogen), and electroblotted onto 0.45 μm Hybond ECL nitrocellulose membranes (Amersham Pharmacia Biotech). […]

PSA-NCAM = test: Immunoblot with PSA-NCAM antibodies of brain tissue after ManNAc feeding; assay type: in vivo, mouse; conditions: n=14 pre treatment, n=10 post treatment, p=0.08
From the text: as §1, §2

[1] = molecular target: T2, UDP-GlcNAC 2-epimerase (GNE) (Mus musculus, UniProt Q91WG8, M712T); test: GNE/MNK epimerase enzymatic assay on tissue after ManNAc feeding; assay type: in vivo; conditions: -/- mice, skeletal muscle, age P2, ManNAc treatment, n=7; untreated -/- 19%
T2 construct: Mouse kidney and skeletal muscle (hindlimb quadriceps) tissues were homogenized; from tissue; host or cells: skeletal muscle and kidney of GNE-M712T knock-in mice (C57BL/6J), age P2
T2 sequence (Q91WG8 1-722 M712T): T1 sequence (Q91WG8 1-722 M712T)
Procedure: (§3) ManNAc administration. Breeding pairs of 6-week-old +/− mice were divided into three groups. Group I consisted of 9 +/− breeding pairs who were administered untreated sterilized tap water. Group II consisted of one breeding pair of +/+ mice (wild-type control) and 6 +/− breeding pairs who were administered 1 mg/ml ManNAc (Sigma) supplemented water. Group III consisted of one +/+ breeding pair and 7 +/− breeding pairs who were administered 5 mg/ml ManNAc supplemented water. Water was changed twice weekly. Nursing females continued to be supplied with ManNAc. All mice were weaned from ManNAc at 21 days. Selected whole litters were sacrificed at age P2 or P6 for histological, genetic, biochemical or ultrastructural analysis.
(§4) GNE/MNK enzymatic assays. Mouse kidney and skeletal muscle (hindlimb quadriceps) tissues were homogenized and subjected to the GNE/MNK epimerase enzymatic assay as described^11,44. This assay is based on incubation with radiolabeled substrate (UDP-[^3H]GlcNAc; American Radiolabeled Chemicals), and detection of radiolabeled product ([^3H]ManNAc) upon separation of oligosaccharides by high pH anion-exchange chromatography with pulsed amperometric detection (Dionex).

[2] = molecular target: T3, UDP-GlcNAC 2-epimerase (GNE) (Mus musculus, UniProt Q91WG8); test: as above; assay type: in vivo; conditions: +/+ mice, skeletal muscle, age P2, ManNAc treatment, n=3
T3 construct: Mouse kidney and skeletal muscle (hindlimb quadriceps) tissues were homogenized; from tissue; host or cells: skeletal muscle and kidney of GNE-M712T knock-in mice (C57BL/6J), age P2
T3 sequence (Q91WG8 1-722): T1 sequence (Q91WG8 1-722 M712T) with T712M
Procedure: as §3, §4

GNE-M712T knock-in mice [3] = test: Tissue histology and electron microscopy of ManNAc treated -/- mice at P6; assay type: in vivo, mouse; conditions: age P6
Procedure: Mouse Histology. Mouse tissues were collected, formalin-fixed and paraffin-embedded. Tissue sections (5 μm) were prepared and stained with hematoxylin and eosin following standard procedures (American Histolabs) or subjected to immunohostochemistry with a variety of primary antibodies. Formalin fixed tissues were deparafinized in Histoclear II (National Diagnostics), […] in a series of ethanol solutions. Antigen retrieval was performed for sections to be stained with the antibodies GNE/MNK (5 min boiling in citric acid based solution; Vector Laboratories) and dystrophin (boiling in 1 mM EDTA, according the manufacturer's protocol; AbCam). The sections were blocked (2% BSA, 10% donkey serum and 0.1% Triton X-100 in PBS) and incubated with primary antibodies (GNE/MNK 1:50; laminin 1:25; dystrophin 1:50) overnight at 4° C., followed by the secondary antibody Alexa 488 donkey-anti-rabbit (1:500 in blocking solution) (Invitrogen). The sections were mounted in Vectashield (Vector Laboratories) and viewed and digitally imaged with a Zeiss Axiovert 200M microscope (Carl Zeiss, Microimaging).
Electron Microscopy. […] The grids were viewed with a Philips 410 electron microscope (FEI Company) at 80 kV and images were recorded on Kodak SO-163 film (Kodak). […]

GNE-M712T knock-in mice [4] = test: Rescue of GNE-M712T knock-in mice by ManNAc feeding (survival of homozygous pups); assay type: in vivo, mouse
Procedure: GNE-M712T mice. GNE-M712T knock-in mice were generated by targeting the M712T (ATG>ACG) mutation exon 12 of the murine GNE gene (Uae1, Gne, GenBank NM_015828). The mutant mice were maintained in the C57BL/6J background. Animals were housed in ventilated cages in a temperature- and light-controlled environment (22° C., 30-70% humidity, 12-hour light/12-hour dark cycle) and were fed irradiated chow (Prolab 5P75 Isopro 3000; PMI Nutrition International) and water ad libitum. All euthanasia was performed with by CO2 followed by cervical dislocations. For Mendelian distribution studies, four pregnant mice E17-19 were euthanized and embryos were retrieved by cesarean section and euthanized by decapitation. All mouse procedures were performed in accordance with protocol G04-3 approved by the Institutional Animal […] and Use Committee of the National Human Genome Research Institute, National Institutes of Health Institutional Review Board.
as §3
Statistical analysis. Differences in genotype distribution (+/+: +/−-−/−) between an untreated control group and ManNAc treated group were tested by a two-tailed Fisher's exact test. To this end a 2×3 table was generated.

podocalyxin = test: Immunoblot of podocalyxin sialylation in kidney extracts after ManNAc feeding; assay type: in vivo, mouse; conditions: -/- kidneys
From the text: as §1, §2

[5] = test system: GNE-deficient mouse embryonic stem cells; conditions: growth medium supplemented with ManNAc; cited from earlier work
[6] = ManNAc 1 g/kg/day to +/- breeding pairs

Structure (SMILES)	incorporation of sialic acid analogs into cell surface glycoconjugates (cultured cells)	decreased amount of GNE/MNK protein compared to +/+ littermates (GNE/MNK protein)	increased PSA-NCAM signal compared to untreated -/- tissues (PSA-NCAM)	residual GNE activity in -/- muscle, relative to untreated +/+ set at 100% [1]	GNE activity in +/+ muscle, relative to untreated +/+ set at 100% [2]	abnormalities in liver, heart and skeletal muscle tissues (GNE-M712T knock-in mice [3])	kidney histology (GNE-M712T knock-in mice [3])	surviving homozygous mice beyond age P3 (GNE-M712T knock-in mice [4]; 1 mg/ml ManNAc in drinking water during matings of +/- mice, 51 offspring)	homozygous pups surviving beyond P3, % of total -/- pups (GNE-M712T knock-in mice [4]; 5 mg ManNAc/ml in drinking water) [%]	number of homozygous pups that survived beyond P3 (GNE-M712T knock-in mice [4]; 5 mg ManNAc/ml in drinking water, out of 97 newborn pups)	homozygous mice that survived past P21 (GNE-M712T knock-in mice [4]; 5 mg ManNAc/ml in drinking water, supplementation ceased at P21)	-/- offspring that survived past P3 (GNE-M712T knock-in mice [4]; [6]) [%]	survivors past P3 that lived past weaning age P21 (GNE-M712T knock-in mice [4]; [6]) [%]	effect on survival of homozygous pups (GNE-M712T knock-in mice [4]; administration of ManNAc to pregnant mothers)	podocalyxin sialylation status (podocalyxin)	sialylation of hyposialylated cells [5]
CC(=O)CCC(=O)N[C@@H]1C(O)O[C@H](CO)[C@@H](O)[C@@H]1O (some centres unmarked) [ManLev, N-levulinoylmannosamine]	resulted in incorporation of the downstream sialic acid analogs	–	–	–	–	–	–	–	–	–	–	–	–	–	–	–
CC(=O)N[C@@H]1C(O)O[C@H](CO)[C@@H](O)[C@@H]1O (some centres unmarked) [ManNAc, N-acetylmannosamine]	–	41 (±3) %	2-28%	31 (±9) % and 31%	114 (±10) % and ~114%	No abnormalities	mildly to remarkably improved histological features; also recorded: mildly to significantly improved kidney histology	did not yield any surviving homozygous mice beyond age P3	44	11	Two	42	18	remarkably salutary effect on survival of homozygous pups	did not result in a statistically significant increase	became resialylated
[N-]=[N+]=NCC(=O)N[C@@H]1C(O)O[C@H](CO)[C@@H](O)[C@@H]1O (some centres unmarked) [ManNAz, N-azidoacetylmannosamine]	resulted in incorporation of the downstream sialic acid analogs	–	–	–	–	–	–	–	–	–	–	–	–	–	–	–
